The target in one experiment is T1, Carbonic anhydrase (Candida albicans (strain SC5314 / ATCC MYA-2876) (Yeast), UniProt Q5AJ71).
T1 sequence (Q5AJ71 whole entry): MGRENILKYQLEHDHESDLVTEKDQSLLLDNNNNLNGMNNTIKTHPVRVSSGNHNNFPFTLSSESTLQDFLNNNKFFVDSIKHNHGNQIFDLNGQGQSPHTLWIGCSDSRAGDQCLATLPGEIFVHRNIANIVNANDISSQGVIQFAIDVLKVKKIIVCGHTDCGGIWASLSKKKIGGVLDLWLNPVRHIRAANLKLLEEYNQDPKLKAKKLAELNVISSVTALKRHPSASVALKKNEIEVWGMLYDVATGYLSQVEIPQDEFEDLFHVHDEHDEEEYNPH

Experiment [1] addresses T2, Carbonic anhydrase 2 (Cryptococcus neoformans, UniProt Q3I4V7).
T2 sequence (Q3I4V7 whole entry): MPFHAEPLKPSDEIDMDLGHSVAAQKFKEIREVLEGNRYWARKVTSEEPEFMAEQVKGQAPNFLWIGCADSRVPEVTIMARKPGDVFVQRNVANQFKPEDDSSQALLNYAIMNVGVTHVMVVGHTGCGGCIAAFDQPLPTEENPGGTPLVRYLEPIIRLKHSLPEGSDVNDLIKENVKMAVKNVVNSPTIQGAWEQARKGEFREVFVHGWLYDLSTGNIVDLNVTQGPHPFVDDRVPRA
Description: Inhibition of Cryptococcus neoformans recombinant Can2 beta-carbonic anhydrase after 15 mins by stopped flow CO2 hydration assay

For experiment [2], the target named is T3, PROBABLE TRANSMEMBRANE CARBONIC ANHYDRASE (CARBONATE DEHYDRATASE) (CARBONIC DEHYDRATASE) (Mycobacterium tuberculosis, UniProt P96878).
T3 sequence (P96878 whole entry): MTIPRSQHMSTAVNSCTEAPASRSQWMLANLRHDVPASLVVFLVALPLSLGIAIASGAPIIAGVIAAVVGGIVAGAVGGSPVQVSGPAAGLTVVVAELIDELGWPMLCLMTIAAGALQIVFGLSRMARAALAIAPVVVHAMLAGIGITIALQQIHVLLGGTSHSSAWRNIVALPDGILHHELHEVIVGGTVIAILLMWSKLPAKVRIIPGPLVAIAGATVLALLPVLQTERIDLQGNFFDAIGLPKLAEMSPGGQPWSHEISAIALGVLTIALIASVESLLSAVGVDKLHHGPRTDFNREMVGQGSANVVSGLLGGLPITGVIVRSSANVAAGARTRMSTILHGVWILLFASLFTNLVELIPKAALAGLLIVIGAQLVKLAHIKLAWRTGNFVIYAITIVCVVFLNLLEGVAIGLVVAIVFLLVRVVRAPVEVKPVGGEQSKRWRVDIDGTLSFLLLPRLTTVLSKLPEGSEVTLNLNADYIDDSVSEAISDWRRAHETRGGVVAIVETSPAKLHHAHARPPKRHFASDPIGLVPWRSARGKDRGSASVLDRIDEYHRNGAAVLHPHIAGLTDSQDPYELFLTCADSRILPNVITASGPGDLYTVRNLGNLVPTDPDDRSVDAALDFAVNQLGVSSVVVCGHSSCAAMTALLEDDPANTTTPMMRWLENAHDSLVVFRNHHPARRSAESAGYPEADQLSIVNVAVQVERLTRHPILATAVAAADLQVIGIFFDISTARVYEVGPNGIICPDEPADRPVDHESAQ
Description: Inhibition of Mycobacterium tuberculosis recombinant Rv3273 beta-carbonic anhydrase after 15 mins by stopped flow CO2 hydration assay

Experiment [3] addresses T4, Beta-carbonic anhydrase 1 (Mycobacterium tuberculosis, UniProt P9WPJ7).
T4 sequence (P9WPJ7 whole entry): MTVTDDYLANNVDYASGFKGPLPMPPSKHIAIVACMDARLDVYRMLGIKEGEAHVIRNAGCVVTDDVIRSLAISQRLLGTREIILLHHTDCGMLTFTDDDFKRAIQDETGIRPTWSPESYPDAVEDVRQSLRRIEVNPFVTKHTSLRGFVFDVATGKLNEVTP
Description: Inhibition of Mycobacterium tuberculosis recombinant Rv1284 beta-carbonic anhydrase after 15 mins by stopped flow CO2 hydration assay

In the next experiment the target is Carbonic anhydrase 1 (Homo sapiens, UniProt P00915).
Carbonic anhydrase 1, sequence (P00915 whole entry): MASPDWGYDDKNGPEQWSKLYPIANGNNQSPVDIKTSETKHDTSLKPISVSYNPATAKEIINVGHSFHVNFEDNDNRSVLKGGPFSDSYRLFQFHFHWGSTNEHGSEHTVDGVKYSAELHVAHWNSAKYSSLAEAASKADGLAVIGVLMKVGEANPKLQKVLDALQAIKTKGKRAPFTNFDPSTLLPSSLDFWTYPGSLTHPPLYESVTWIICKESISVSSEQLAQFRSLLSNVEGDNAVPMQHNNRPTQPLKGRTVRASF
The target in experiment [4] is Carbonic anhydrase 2 (Homo sapiens, UniProt P00918).
Description: Inhibition of human recombinant alpha-carbonic anhydrase 2 after 15 mins by stopped flow CO2 hydration assay
Experiment [5] deals with T5, Beta-carbonic anhydrase 1 (Mycobacterium tuberculosis) (UniProt P9WPJ7).
T5 sequence (whole entry): T4 sequence (P9WPJ7 whole entry)

The structures appear in SMILES notation.

As a reminder, the Ki is a dissociation constant, usually derived from enzyme kinetics or from competition with a known ligand. The low end stands for a stronger hold on the target, the high end for a looser hold on the target.

In the case of `COc1cc(C)cc2oc3ccc(O)c(C(=O)O)c3c(=O)c12`, the Ki at Carbonic anhydrase amounted to 1060 nM; at Carbonic anhydrase 2 [1], 1120 nM; in experiment [2], 11400 nM; in experiment [3] it was 10500 nM.
Consider `COc1cc([C@@H]2[C@@H](C)[C@@H](C)[C@@H]2c2ccc(O)c(OC)c2)ccc1O` [ENDIANDRIN B], for which the Ki on Carbonic anhydrase 1 was found to be 354000 nM; on Carbonic anhydrase, 700 nM; at Carbonic anhydrase 2 [1] it was 950 nM; in experiment [2], 890 nM; in experiment [3], 800 nM; on Carbonic anhydrase 2 [4], 12100 nM.
With `COc1cccc(CCNC(=O)Cc2ccc(O)c(Cl)c2)c1`, the Ki came out at 720 nM on Carbonic anhydrase, 940 nM at Carbonic anhydrase 2 [1], 910 nM in experiment [2] and 1270 nM in experiment [3].
Take `NS(=O)(=O)Cc1noc2ccccc12` [ZONISAMIDE]: the Ki in experiment [3] worked out at 287000 nM.
As to `COc1ccc(CCNC(=O)Cc2ccc(O)c(Cl)c2)cc1OC`, the Ki was found to be 750 nM at Carbonic anhydrase, 860 nM at Carbonic anhydrase 2 [1], 900 nM in experiment [2] and 1780 nM in experiment [3].
Turning to `COCCNC(=O)Cc1ccc(O)c(Cl)c1`, the Ki at Carbonic anhydrase 1 was 158000 nM; on Carbonic anhydrase it was 990 nM; at Carbonic anhydrase 2 [1], 950 nM; in experiment [2] it was 1140 nM; in experiment [3], 11000 nM; on Carbonic anhydrase 2 [4] it was 10400 nM.
For the compound `COc1cc(C[C@@H](C)[C@H](C)Cc2ccc(O)c(OC)c2)ccc1O` [(-)-DIHYDROGUAIARETICACID], the Ki was determined as 307000 nM at Carbonic anhydrase 1; 620 nM at Carbonic anhydrase; 810 nM on Carbonic anhydrase 2 [1]; 9100 nM in experiment [2]; 850 nM in experiment [3]; 230000 nM at Carbonic anhydrase 2 [4].
Regarding `O=C(Cc1ccc(O)c(Cl)c1)NCc1ccccc1`, the inhibitory constant (Ki) was 10500 nM on Carbonic anhydrase 1; 780 nM at Carbonic anhydrase; 720 nM at Carbonic anhydrase 2 [1]; 980 nM in experiment [2]; 12200 nM in experiment [3]; 11400 nM at Carbonic anhydrase 2 [4].
On to `COC(=O)/C=C/C(=O)N[C@H](Cc1ccc(O)c(Cl)c1)C(=O)O` [(-)-XYLARIAMIDE A], for which the Ki at Carbonic anhydrase was 1030 nM; at Carbonic anhydrase 2 [1], 1150 nM; in experiment [2], 11300 nM; in experiment [3] it was 840 nM.
On to `NC(=O)Cc1ccc(O)c(Cl)c1`, for which the Ki on Carbonic anhydrase worked out at 1000 nM; at Carbonic anhydrase 2 [1] it was 850 nM; in experiment [2], 11200 nM; in experiment [3], 10500 nM.
As for `O=C(Cc1ccc(O)c(Cl)c1)NCCc1ccccc1`, the Ki at Carbonic anhydrase 1 was found to be 9600 nM; at Carbonic anhydrase, 930 nM; at Carbonic anhydrase 2 [1] it was 810 nM; in experiment [2], 970 nM; in experiment [3] it was 800 nM; at Carbonic anhydrase 2 [4], 9800 nM.
Take `COC(=O)/C=C/C(=O)N[C@@H](Cc1ccc(O)c(Cl)c1)C(=O)O` [(+)-XYLARIAMIDE A]: the Ki on Carbonic anhydrase amounted to 1060 nM; on Carbonic anhydrase 2 [1], 1110 nM; in experiment [2], 10900 nM; in experiment [3], 710 nM.
With `CCCCNC(=O)Cc1ccc(O)c(Cl)c1`, the Ki at Carbonic anhydrase 1 was determined as 10700 nM; at Carbonic anhydrase it was 810 nM; at Carbonic anhydrase 2 [1], 730 nM; in experiment [2], 10400 nM; in experiment [3] it was 11600 nM; on Carbonic anhydrase 2 [4], 9400 nM.
`CC(C)(C)NC(=O)Cc1ccc(O)c(Cl)c1`: the Ki is 960 nM on Carbonic anhydrase, 910 nM on Carbonic anhydrase 2 [1], 10200 nM in experiment [2] and 12300 nM in experiment [3].
Turning to `COc1cc([C@@H]2[C@@H](C)[C@H](C)[C@H]2c2ccc(O)c(OC)c2)ccc1O` [ENDIANDRIN A], the Ki at Carbonic anhydrase 1 came to 368000 nM; on Carbonic anhydrase, 730 nM; on Carbonic anhydrase 2 [1], 770 nM; in experiment [2], 8920 nM; in experiment [3], 820 nM; at Carbonic anhydrase 2 [4], 11700 nM.
Turning to `Nc1ccc(S(N)(=O)=O)cc1` [SULFANILAMIDE], affinity in experiment [2] was put at a Ki of 7110 nM.
Still for that read-out and setting: then `CC1(C)O[C@@H]2[C@@H](CO[C@@]3(COS(N)(=O)=O)OC(C)(C)O[C@@H]23)O1` [TOPIRAMATE], with 3020 nM.
On to `COc1cc(CO)cc2oc3ccc(O)c(C(=O)O)c3c(=O)c12`, for which the Ki came to 1010 nM on Carbonic anhydrase, 1080 nM at Carbonic anhydrase 2 [1], 10900 nM in experiment [2] and 990 nM in experiment [3].
The matching figures for `Oc1ccccc1` [PHENOL]: 17300 nM, 25900 nM, 79000 nM and 64000 nM.
For `NC1=N/C(=C\c2ccc(O)c(O)c2)C(=O)N1` [POLYANDROCARPAMINE B], in that order: 900 nM, 950 nM, 920 nM and 910 nM.
For the compound `OCCc1ccc(O)cc1` [TYROSOL], the fold change (FC) in experiment [5] worked out at 75. For the same compound, the Ki was 430000 nM on Carbonic anhydrase 1; 1100 nM at Carbonic anhydrase; 1080 nM at Carbonic anhydrase 2 [1]; 12100 nM in experiment [2]; 850 nM in experiment [3]; 8700 nM on Carbonic anhydrase 2 [4].
As for `COc1cc(/C=C2\N=C(N)NC2=O)ccc1O` [POLYANDROCARPAMINE A], the Ki at Carbonic anhydrase 1 came out at 10500 nM; at Carbonic anhydrase, 920 nM; on Carbonic anhydrase 2 [1], 890 nM; in experiment [2] it was 910 nM; in experiment [3], 11800 nM; on Carbonic anhydrase 2 [4], 9600 nM.
For `O=C(O)Cc1ccc(O)cc1`, the Ki at Carbonic anhydrase 1 came to 309000 nM; at Carbonic anhydrase, 1020 nM; on Carbonic anhydrase 2 [1], 900 nM; in experiment [2], 11400 nM; in experiment [3], 10800 nM; on Carbonic anhydrase 2 [4], 10300 nM.
Consider `O=C(O)Cc1ccc(O)c(Cl)c1`, for which the Ki worked out at 1080 nM on Carbonic anhydrase, 1120 nM at Carbonic anhydrase 2 [1], 10800 nM in experiment [2] and 10300 nM in experiment [3].
The matching figures for `NC(=O)Cc1ccc(O)cc1`: 910 nM, 840 nM, 9120 nM and 850 nM.
For `NS(=O)(=O)c1ccc(CCNC(=O)Cc2ccc(O)c(Cl)c2)cc1`, in that order: 790 nM, 740 nM, 850 nM and 1160 nM.
